Data as given in patent US20080076703A1, “Compositions and methods for the enhanced uptake of therapeutic agents through the bladder epithelium” (Cell Genesys, Inc., priority 2003, published 2008).

What was measured:
[1] = test system: murine bladders; experiment: Oregon Green 488 Paclitaxel uptake in bladder after intravesical instillation (fluorescence microscopy of bladder sections); type: in vivo, Balb/c mice; conditions: DDM pretreatment 5 min; Oregon Green 488 Paclitaxel 5 μg instilled, retained 15 min
Procedure: (§1) Female Balb/c mice were used due to the ease of urethral cannulation and intravesical instillation. All animals were housed according to institutional regulations for experimental animals. Balb/c mice (20 gm body weight) were anesthetized with Isoflurane, and a 24-gauge catheter was introduced through the urethra into the bladder. The residual urine was emptied and the bladder was flushed three times with 100 μL of PBS employing a 25-gauge needle inserted into the external end of the catheter. […]
(§2) 70 μL of the solution was intravesically instilled in the bladder and retained for 15 min after which the bladder was washed 3 times with 100 μL each of PBS. […] Triplicate samples were adjusted to 2.00 mL with 0.2 M carbonate buffer (pH=9.34) and spectrophotometric emission was measured at 538 nm following excitation at 485 nm. […]
On examination of the histological sections of the bladder that had been pretreated with PBS followed by the intravesical retention of Paclitaxel, it was observed that there were very small patchy areas of non-specifically bound drug on the luminal surface of the bladder (FIGS. 1A-1C). Most of the bladder surface was devoid of any fluorescence that indicated the absence of any entry of the drug into the bladder tissue. […]

[2] = test system: bladder tissue; conditions: after DDM pretreatment; cited from earlier work
[3] = test system: Mouse bladders; experiment: Systemic uptake of intravesically instilled sodium fluorescein (serum fluorescence); type: in vivo, Balb/c mice; conditions: 0.1% DDM pretreatment 5 min, 0.1% sodium fluorescein instilled, retained 15 min
Procedure: as §1, §2
Fluorescein has been used to measure alterations in bladder permeability after bladder mucosal injury in mice [Eichel, L. et al., (2001) Urology. […] Following 3× wash of the bladder with PBS, blood was removed from the mice via cardiac puncture and the serum was analyzed for systemic distribution of intravesically instilled sodium fluorescein as described above. […]

[4] = test system: murine bladders; experiment: FITC-LC-TAT peptide uptake in bladder after intravesical instillation (fluorescence microscopy of bladder sections); type: in vivo, Balb/c mice; conditions: 0.1% DDM pretreatment; 5 μg FITC-LC-TAT instilled, retained 15 min
Procedure: as §1, with “catheter. After washing, bladder pretreatment was performed employing the various test reagents as follows: the pretreatment reagent (DDM) was diluted to the desired concentration in PBS, and the bladder was quickly rinsed twice with 100 μL each of the reagent. After the rinsing steps, 100 μL of the pretreatment reagent was introduced via the catheter and retained in the bladder for 5 minutes, followed by an additional quick rinse with the pretreatment reagent. The bladder was then washed three times with 100 μL each of PBS.” for “catheter.”
as §2

[5] = test system: urothelium (GAG layer, tight junctions); experiment: Electron Microscopy of the DDM pretreated bladder; type: in vivo

Compound: CCCCCCCCCCCCO[C@@H]1O[C@H](CO)[C@@H](O[C@H]2O[C@H](CO)[C@@H](O)[C@H](O)[C@H]2O)[C@H](O)[C@H]1O [DDM, n-dodecyl-β-D-maltoside]
- uptake of Paclitaxel into bladder tissue (fluorescence) [1]: significant uptake
- penetration of adenovirus particles (70 nm to 100 nm) into bladder tissue [2]: able to penetrate the bladder tissue
- increase in the circulating levels of fluorescein as compared to PBS pretreatment [3]: 5-10 ×
- FITC-LC-TAT fluorescent signal in epithelial layer on luminal surface of bladder [4]: distinct signal
- GAG layer on the urothelium (electron microscopy) [5]: absent
- tight junctions along the surface (electron microscopy) [5]: Disruption of tight junctions
